Experimental data as given in paper PMC3961306, “Comparison of the Cancer Gene Targeting and Biochemical Selectivities of All Targeted Kinase Inhibitors Approved for Clinical Use” (PLoS ONE, 2014).

What was measured:
Experiment in all cases: Kinase profiling in a biochemical assay panel (mobility shift assays and ELISA), %-inhibition at 1 μM; selectivity entropy
[1] = target: panel of more than 300 wild-type and mutant kinases (313 kinase panel) (Homo sapiens, UniProt O14578); conditions: kinase CRIK; compound at 1 μM
[2] = target: panel of more than 300 wild-type and mutant kinases (313 kinase panel) (Homo sapiens, UniProt P08581, Y1235D); conditions: kinase MET(Y1235D); compound at 1 μM
[3] = target: panel of more than 300 wild-type and mutant kinases (313 kinase panel) (Homo sapiens, UniProt P24723); conditions: kinase PKCη; 1 μM
[4] = target: panel of more than 300 wild-type and mutant kinases (313 kinase panel) (Homo sapiens, UniProt P22455, N535K); conditions: kinase FGFR4(N535K); compound at 1 μM
[5] = target: panel of more than 300 wild-type and mutant kinases (313 kinase panel) (Homo sapiens, UniProt Q13177); conditions: kinase PAK2; 1 μM
[6] = target: panel of more than 300 wild-type and mutant kinases (313 kinase panel) (Homo sapiens, UniProt Q9Y5S2); conditions: kinase MRCKβ; 1 μM
[7] = target: T1, panel of more than 300 wild-type and mutant kinases (313 kinase panel) (Homo sapiens, UniProt P33981); conditions: kinase TTK; compound at 1 μM
T1 sequence (P33981 1-857): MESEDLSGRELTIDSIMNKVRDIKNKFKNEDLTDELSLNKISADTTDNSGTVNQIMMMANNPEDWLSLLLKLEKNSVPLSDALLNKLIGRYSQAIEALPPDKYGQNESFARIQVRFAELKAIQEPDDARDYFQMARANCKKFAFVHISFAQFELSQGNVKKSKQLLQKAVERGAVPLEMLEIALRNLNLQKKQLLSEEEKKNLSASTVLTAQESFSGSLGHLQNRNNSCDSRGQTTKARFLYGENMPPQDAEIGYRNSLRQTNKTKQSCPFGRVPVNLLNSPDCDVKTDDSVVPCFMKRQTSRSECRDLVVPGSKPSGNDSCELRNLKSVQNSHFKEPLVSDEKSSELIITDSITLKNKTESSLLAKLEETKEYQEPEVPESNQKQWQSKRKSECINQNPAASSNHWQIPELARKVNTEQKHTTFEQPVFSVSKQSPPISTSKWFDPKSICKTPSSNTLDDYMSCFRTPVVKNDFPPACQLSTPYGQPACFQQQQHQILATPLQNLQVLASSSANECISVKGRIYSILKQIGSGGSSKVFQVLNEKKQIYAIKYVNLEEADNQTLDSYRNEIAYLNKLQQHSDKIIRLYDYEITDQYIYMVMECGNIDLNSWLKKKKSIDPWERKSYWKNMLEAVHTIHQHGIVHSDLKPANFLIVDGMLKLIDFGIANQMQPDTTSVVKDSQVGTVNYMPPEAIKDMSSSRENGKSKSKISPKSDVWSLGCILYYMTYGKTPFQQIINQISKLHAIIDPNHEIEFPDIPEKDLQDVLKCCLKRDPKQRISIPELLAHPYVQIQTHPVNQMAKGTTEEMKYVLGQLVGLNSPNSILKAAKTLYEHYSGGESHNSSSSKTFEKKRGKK

[8] = target: T2, panel of more than 300 wild-type and mutant kinases (313 kinase panel) (Homo sapiens, UniProt P51813); conditions: kinase BMX; 1 μM compound
T2 sequence (P51813 1-675): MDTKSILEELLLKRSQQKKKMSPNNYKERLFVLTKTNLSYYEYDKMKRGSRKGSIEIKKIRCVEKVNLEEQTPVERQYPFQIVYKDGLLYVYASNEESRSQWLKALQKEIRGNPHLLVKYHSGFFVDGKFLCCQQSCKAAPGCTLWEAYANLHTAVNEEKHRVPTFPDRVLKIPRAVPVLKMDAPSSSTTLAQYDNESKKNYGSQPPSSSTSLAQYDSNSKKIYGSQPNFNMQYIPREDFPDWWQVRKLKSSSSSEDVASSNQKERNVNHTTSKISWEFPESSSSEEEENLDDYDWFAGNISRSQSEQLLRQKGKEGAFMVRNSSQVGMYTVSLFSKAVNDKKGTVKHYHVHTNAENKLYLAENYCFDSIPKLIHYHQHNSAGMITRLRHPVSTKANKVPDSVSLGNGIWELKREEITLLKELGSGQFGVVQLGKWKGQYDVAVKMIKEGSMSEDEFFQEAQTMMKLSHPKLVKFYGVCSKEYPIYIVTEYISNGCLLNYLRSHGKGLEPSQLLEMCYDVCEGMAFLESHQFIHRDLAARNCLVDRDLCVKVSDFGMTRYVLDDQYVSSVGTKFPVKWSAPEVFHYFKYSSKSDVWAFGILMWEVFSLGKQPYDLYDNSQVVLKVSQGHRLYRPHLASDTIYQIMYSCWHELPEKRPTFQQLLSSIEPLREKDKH

[9] = target: panel of more than 300 wild-type and mutant kinases (313 kinase panel) (Homo sapiens, UniProt P53350); conditions: kinase PLK1; 1 μM
[10] = target: T3, panel of more than 300 wild-type and mutant kinases (313 kinase panel) (Homo sapiens, UniProt Q9UQB9); conditions: kinase AurC; 1 μM compound
T3 sequence (Q9UQB9 1-309): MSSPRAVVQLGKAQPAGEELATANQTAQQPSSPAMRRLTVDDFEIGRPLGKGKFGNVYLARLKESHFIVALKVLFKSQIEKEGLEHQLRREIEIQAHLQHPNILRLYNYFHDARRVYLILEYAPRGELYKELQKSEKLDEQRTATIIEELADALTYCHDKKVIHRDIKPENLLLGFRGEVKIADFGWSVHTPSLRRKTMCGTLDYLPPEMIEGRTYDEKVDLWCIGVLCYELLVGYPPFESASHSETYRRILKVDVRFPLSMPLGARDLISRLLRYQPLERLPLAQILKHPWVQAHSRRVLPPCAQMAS

Sequence of panel of more than 300 wild-type and mutant kinases (313 kinase panel) (Homo sapiens, UniProt P24723) (P24723 whole entry, stated change not applied): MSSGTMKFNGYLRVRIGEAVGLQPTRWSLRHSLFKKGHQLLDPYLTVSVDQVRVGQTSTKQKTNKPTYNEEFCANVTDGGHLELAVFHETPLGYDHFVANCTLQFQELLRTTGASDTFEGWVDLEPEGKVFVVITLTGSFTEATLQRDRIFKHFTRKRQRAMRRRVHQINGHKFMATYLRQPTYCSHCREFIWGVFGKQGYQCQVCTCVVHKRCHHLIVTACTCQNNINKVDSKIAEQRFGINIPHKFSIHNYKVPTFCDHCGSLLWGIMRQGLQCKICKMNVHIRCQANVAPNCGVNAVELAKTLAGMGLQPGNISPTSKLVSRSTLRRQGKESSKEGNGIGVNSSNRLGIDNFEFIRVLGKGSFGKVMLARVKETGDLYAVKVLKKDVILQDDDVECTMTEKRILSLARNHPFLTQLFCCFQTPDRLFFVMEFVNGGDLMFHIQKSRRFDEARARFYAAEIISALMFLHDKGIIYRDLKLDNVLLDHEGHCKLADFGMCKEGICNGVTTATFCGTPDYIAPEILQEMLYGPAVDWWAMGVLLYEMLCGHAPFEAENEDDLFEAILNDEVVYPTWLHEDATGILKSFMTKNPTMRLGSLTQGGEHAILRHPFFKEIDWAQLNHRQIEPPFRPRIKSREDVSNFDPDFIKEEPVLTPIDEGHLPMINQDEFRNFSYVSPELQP
Sequence of panel of more than 300 wild-type and mutant kinases (313 kinase panel) (Homo sapiens, UniProt O14578) (O14578 whole entry, stated change not applied): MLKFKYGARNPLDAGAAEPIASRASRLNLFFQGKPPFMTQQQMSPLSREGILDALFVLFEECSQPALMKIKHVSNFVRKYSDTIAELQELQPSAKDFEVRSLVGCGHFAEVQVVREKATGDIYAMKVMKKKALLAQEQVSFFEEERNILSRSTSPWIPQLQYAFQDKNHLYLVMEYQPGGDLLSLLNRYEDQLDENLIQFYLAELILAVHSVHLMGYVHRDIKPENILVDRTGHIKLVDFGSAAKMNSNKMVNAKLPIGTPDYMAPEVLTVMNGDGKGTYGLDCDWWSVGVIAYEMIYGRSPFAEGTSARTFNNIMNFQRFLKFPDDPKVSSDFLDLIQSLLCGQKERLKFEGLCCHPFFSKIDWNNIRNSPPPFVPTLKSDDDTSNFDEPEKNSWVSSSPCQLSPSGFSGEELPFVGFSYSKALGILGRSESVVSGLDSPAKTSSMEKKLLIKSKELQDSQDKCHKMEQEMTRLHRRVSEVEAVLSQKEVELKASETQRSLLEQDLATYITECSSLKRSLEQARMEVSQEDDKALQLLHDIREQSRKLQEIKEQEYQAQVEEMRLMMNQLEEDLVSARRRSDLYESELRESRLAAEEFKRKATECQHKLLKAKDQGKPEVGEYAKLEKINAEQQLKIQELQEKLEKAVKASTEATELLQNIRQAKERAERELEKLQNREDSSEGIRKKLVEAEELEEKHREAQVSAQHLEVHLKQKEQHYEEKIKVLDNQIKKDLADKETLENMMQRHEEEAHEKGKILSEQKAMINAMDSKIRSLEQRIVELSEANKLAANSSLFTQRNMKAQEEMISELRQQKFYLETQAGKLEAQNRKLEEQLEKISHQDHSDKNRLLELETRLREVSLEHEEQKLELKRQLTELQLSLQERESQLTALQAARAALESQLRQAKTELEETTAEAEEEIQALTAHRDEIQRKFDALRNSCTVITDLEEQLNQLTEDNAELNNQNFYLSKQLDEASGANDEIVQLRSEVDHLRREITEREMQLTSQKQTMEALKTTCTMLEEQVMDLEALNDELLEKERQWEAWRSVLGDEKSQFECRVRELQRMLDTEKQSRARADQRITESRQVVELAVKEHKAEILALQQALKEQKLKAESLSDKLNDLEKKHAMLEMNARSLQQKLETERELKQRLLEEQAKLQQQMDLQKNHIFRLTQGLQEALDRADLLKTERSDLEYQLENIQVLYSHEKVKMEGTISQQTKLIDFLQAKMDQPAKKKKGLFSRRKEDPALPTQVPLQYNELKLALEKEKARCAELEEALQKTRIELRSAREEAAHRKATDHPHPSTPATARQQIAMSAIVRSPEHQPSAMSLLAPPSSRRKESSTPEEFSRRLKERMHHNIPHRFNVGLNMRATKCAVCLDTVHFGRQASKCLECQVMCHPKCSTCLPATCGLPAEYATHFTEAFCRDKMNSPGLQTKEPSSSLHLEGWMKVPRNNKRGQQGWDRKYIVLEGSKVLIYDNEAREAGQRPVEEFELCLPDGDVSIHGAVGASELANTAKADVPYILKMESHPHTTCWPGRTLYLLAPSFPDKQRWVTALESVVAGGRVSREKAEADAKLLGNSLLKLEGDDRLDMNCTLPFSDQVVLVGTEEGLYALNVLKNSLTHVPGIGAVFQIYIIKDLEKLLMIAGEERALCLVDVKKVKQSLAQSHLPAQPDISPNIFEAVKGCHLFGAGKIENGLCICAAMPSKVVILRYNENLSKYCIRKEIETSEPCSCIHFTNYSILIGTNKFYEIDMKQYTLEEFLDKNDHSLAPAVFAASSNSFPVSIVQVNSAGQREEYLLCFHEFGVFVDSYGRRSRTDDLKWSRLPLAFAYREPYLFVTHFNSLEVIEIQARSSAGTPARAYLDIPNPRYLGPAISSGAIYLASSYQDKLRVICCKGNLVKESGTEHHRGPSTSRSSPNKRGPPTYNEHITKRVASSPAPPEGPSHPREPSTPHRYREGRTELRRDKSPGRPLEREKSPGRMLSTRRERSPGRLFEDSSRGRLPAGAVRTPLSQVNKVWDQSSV
Sequence of panel of more than 300 wild-type and mutant kinases (313 kinase panel) (Homo sapiens, UniProt P22455, N535K) (P22455 22-802 N535K): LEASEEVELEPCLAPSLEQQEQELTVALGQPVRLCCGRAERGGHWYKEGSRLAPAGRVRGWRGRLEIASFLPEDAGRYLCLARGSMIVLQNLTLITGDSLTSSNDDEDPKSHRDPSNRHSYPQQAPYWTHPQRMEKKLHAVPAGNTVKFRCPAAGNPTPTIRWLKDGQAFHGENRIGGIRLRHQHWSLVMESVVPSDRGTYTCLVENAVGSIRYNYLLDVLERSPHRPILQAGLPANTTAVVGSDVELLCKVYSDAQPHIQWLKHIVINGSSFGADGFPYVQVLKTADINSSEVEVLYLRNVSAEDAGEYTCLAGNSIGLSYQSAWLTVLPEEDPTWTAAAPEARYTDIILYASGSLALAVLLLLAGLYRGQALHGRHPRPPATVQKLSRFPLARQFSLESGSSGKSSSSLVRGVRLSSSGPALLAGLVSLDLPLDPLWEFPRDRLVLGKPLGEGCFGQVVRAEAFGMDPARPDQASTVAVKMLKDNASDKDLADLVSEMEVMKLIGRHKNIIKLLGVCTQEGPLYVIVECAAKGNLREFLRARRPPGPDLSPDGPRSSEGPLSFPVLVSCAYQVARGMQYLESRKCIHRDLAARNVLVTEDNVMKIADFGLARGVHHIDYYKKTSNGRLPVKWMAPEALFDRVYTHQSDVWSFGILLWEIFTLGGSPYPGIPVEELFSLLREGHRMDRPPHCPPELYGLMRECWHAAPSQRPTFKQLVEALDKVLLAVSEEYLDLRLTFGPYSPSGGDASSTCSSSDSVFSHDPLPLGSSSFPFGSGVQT
Sequence of panel of more than 300 wild-type and mutant kinases (313 kinase panel) (Homo sapiens, UniProt P08581, Y1235D) (P08581 25-1390 Y1235D): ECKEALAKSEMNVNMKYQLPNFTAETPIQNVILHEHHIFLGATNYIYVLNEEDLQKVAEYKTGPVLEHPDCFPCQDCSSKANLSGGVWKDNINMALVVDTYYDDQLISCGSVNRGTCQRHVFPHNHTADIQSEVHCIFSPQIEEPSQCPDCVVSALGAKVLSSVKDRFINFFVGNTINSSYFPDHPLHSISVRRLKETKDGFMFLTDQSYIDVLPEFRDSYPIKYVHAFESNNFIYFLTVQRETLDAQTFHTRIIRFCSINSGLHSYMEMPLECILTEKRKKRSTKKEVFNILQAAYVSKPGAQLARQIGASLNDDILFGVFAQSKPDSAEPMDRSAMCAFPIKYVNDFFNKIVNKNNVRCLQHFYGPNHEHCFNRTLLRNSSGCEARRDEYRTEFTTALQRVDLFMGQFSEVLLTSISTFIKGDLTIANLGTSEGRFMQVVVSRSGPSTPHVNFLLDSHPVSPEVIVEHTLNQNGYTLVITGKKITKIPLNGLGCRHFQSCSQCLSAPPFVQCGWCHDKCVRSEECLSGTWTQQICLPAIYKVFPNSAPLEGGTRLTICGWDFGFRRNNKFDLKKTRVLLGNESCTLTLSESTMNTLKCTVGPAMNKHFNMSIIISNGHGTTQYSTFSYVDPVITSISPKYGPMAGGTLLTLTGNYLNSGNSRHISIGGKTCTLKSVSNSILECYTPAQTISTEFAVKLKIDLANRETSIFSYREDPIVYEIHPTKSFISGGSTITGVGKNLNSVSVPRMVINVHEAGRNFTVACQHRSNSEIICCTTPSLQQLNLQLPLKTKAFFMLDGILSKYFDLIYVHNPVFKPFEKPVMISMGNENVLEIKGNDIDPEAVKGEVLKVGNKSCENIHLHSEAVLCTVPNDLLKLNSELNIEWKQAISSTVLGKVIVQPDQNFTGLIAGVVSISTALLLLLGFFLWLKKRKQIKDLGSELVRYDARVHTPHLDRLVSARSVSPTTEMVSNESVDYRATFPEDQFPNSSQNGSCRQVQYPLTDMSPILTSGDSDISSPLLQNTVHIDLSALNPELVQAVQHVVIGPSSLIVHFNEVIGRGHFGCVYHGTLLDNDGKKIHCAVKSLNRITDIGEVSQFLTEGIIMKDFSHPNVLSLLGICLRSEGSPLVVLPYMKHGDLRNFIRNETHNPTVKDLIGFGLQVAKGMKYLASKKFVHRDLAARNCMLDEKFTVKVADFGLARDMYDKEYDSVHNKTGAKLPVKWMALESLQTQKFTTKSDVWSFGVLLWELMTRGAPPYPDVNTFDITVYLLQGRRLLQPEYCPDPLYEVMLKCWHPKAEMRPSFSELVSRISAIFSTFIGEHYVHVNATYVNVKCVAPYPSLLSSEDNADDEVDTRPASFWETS

SMILES | %-inhibition of CRIK [1] [%] | %-inhibition of MET(Y1235D) [2] [%] | %-inhibition of PKCη [3] [%] | %-inhibition of FGFR4(N535K) [4] [%] | %-inhibition of PAK2 [5] [%] | %-inhibition of MRCKβ [6] [%] | %-inhibition of TTK [7] [%] | %-inhibition, BMX [8] [%] | %-inhibition of PLK1 [9] [%] | %-inhibition, AurC [10] [%]
CO[C@H]1C[C@@H]2CC[C@@H](C)[C@@](O)(O2)C(=O)C(=O)N2CCCC[C@H]2C(=O)O[C@H]([C@H](C)C[C@@H]2CC[C@@H](OCCO)[C@H](OC)C2)CC(=O)[C@H](C)/C=C(\C)[C@@H](O)[C@@H](OC)C(=O)[C@H](C)C[C@H](C)/C=C/C=C/C=C/1C [everolimus] | -14 | -5 | 9 | 9 | -8 | 0.688 | -2.68 | -5.3 | 0.059 | -6.41
CNC(=O)c1cc(Oc2ccc(NC(=O)Nc3ccc(Cl)c(C(F)(F)F)c3)c(F)c2)ccn1 [regorafenib] | -18 | -1.72 | -9 | 62 | -1.3 | -17 | 0.186 | -1.77 | -0.767 | 22
CO[C@H]1C[C@@H]2CC[C@@H](C)[C@@](O)(O2)C(=O)C(=O)N2CCCC[C@H]2C(=O)O[C@H]([C@H](C)C[C@@H]2CC[C@@H](OC(=O)C(C)(CO)CO)[C@H](OC)C2)CC(=O)[C@H](C)/C=C(\C)[C@@H](O)[C@@H](OC)C(=O)[C@H](C)C[C@H](C)/C=C/C=C/C=C/1C [temsirolimus] | -15 | -6.4 | 8 | 9 | -1.81 | -4 | -22 | -7 | -0.295 | 0.194
CC(=O)Nc1cccc(-n2c(=O)n(C3CC3)c(=O)c3c(Nc4ccc(I)cc4F)n(C)c(=O)c(C)c32)c1 [trametinib] | -4.25 | -1.5 | -8 | -5.47 | -9 | -2.56 | 59 | -3.22 | -9 | 1
CCCS(=O)(=O)Nc1ccc(F)c(C(=O)c2c[nH]c3ncc(-c4ccc(Cl)cc4)cc23)c1F [vemurafenib] | -6 | 2.5 | -22 | 9 | 13 | -5 | -14 | 24 | -4 | 13
